# Where a SMILES comes first, the peptide text is derived from it. [ ]: non-standard residue; d: D form.
# Assays:
# P. aeruginosa PaO1 [1] = assay: Murine peritoneal sepsis model; type: in vivo, mouse
# Procedure: (§1) Murine peritoneal sepsis models with A. baumannii ATCC 17978, P. aeruginosa PaO1 or E. coli ATCC 25922 strains were established by i.p. inoculation of the bacteria. Briefly, mice were inoculated with 0.5 mL of the bacterial suspensions, which were incubated for 20–24 h in LB at 37 °C and mixed in a 1:1 ration with a saline solution containing 10% (w/v) porcine mucin (Sigma, Spain).
# (§2) The murine peritoneal sepsis models by A. baumannii ATCC 17978, P. aeruginosa PaO1 or E. coli ATCC 25922 strains were established by i.p. inoculation of the bacteria. Briefly, animals were infected i.p. with 0.5 mL of the MLD100 of A. baumannii ATCC 17978, P. aeruginosa PaO1, or E. coli ATCC 25922 strains mixed 1:1 with 10% porcine mucin. […] Fifthy-six mice were randomly ascribed to the following groups: 1). controls (without treatment), and 2). […] Mortality was recorded over 72 h. After death or sacrifice of the mice at the end of the experimental period, aseptic thoracotomies were performed, and blood samples were obtained by cardiac puncture for qualitative blood cultures. The spleen and lungs were aseptically removed and homogenized (Stomacher 80; Tekmar Co., USA) in 2 mL of sterile NaCl 0.9% solution. Ten-fold dilutions of the homogenized spleen and lungs were plated onto Sheep blood agar for quantitative cultures (log CFU/g of spleen or lungs).
# A. baumannii ATCC 17978 [2] = assay: Murine peritoneal sepsis model; type: in vivo, mouse
# Procedure: as §1, §2
# E. coli ATCC 25922 [3] = assay: Murine peritoneal sepsis model; type: in vivo, mouse
# Procedure: as §1, §2
# A. baumannii ATCC 17978 [4] = assay: Adhesion of bacteria to A549 cells; type: cell-based; settings: 2 h
# Procedure: Subsequently, infected A549 cells were washed five times with pre-warmed PBS and lysed with 0.5% Triton X-100. Diluted lysates were plated onto blood agar (Blood-Agar Columbia, Becton Dickinson Microbiology Systems, USA) and incubated at 37 °C for 24 h for enumeration of developed colonies and then the determination of the number of bacteria that attached to A549 cells.
# Figure S3. OmpA inhibitor hexapeptides reduce A. baumannii adherence to A549 cells. A549 cells were infected with 10^8 CFU/mL of ATCC 17978 strain during 2 h in presence of AOA-1, […]
# of bacterial adherence was calculated as follow: [(number of colonies of treated A549 cells with peptide / number of colonies of non-treated cells) x 100]. Representative results of three independent experiments are shown; data are means ± SEM. *P<0.05: between untreated and […]
# P. aeruginosa PaO1 [5] = assay: Time kill curves; type: cell-based; settings: 0.25–1 mg/mL
# Text: (§3) Figure S4. Time kill curves of A. baumannii ATCC 17978, P. aeruginosa PaO1, and E. coli
# (§4) (also on this page, place not known: Bacterial concentration ( Log CFU/mL) Bacterial concentration ( Log CFU/mL) Bacterial concentration ( Log CFU/mL))
# A. baumannii ATCC 17978 [6] = assay: Time kill curves; type: cell-based; settings: 0.25–1 mg/mL
# Text: as §3, §4
# E. coli ATCC 25922 [7] = assay: Time kill curves; type: cell-based; settings: 0.25–1 mg/mL
# Text: as §3, §4
# P. aeruginosa PaO1 [8] = assay: Bacterial cytotoxicity on A549 cells, MTT assay; type: cell-based; settings: P. aeruginosa PaO1 pretreated with 0.25 or 0.5 mg/mL, 24 h
# Procedure: (§5) Bacterial cytotoxicity. […] Prior the evaluation of bacterial cytotoxicity, we firstly removed viable bacteria from A549 cells cultures and washed A549 cells five times with pre-warmed PBS. Then, cellular viability was assessed as indicated above.
# A. baumannii ATCC 17978 [9] = assay: Bacterial cytotoxicity on A549 cells, MTT assay; type: cell-based; settings: A. baumannii ATCC 17978 pretreated with 0.25 or 0.5 mg/mL, 24 h
# Procedure: as §5
# E. coli ATCC 25922 [10] = assay: Bacterial cytotoxicity on A549 cells, MTT assay; type: cell-based; settings: E. coli ATCC 25922 pretreated with 0.25 or 0.5 mg/mL, 24 h
# Procedure: as §5
# [11] = test system: JPAB01: ompA-deficient ATCC 17978 strain; assay: Bacterial cytotoxicity on A549 cells, MTT assay; type: cell-based, A. baumannii; settings: JPAB01, 0.5 mg/mL, 48 h
# Procedure: as §5
# Figure S5. Cell death induced by A. baumannii ATCC 17978 and JPAB01 strains. A549 cells were infected for 48 h with 10^8 CFU/mL of ATCC 17978 and JPAB01 strains treated with AOA-2 (0 or 0.5 mg/mL). Bacterial cytotoxicity was assessed by monitoring the mitochondrial reduction activity using the MTT assay. Representative results of two independent experiments are shown; data are means ± SEM. JPAB01: ompA-deficient ATCC 17978 strain. *P<0.05: between infected and non-infected cells, #P<0.05: between untreated and treated groups. […]
# E. coli OmpA = target: T1, E. coli OmpA (Escherichia coli, UniProt P0A910); assay: NMR detection of binding (1H, STD, PFG diffusion); settings: AOA-2 750 μM, OmpA 8 μM, 1 mM Triton X-100, pH 7.3, 25 °C
# T1 construct: A recombinant 37 kDa polypeptide fragment containing the transmembrane and periplasmatic domains of the E. coli OmpA protein; purchased NovoPro (China)
# Procedure: A recombinant 37 kDa polypeptide fragment containing the transmembrane and periplasmatic domains of the E. coli OmpA protein was purchased from NovoPro (China). OmpA samples contained Triton X-100 to mimic the membrane environment.
# All NMR experiments were recorded at 25 °C on a Bruker Avance 800 MHz spectrometer equipped with a cryoprobe.
# Saturation transfer difference[38] (STD) experiments were obtained using a pseudo-2D pulse sequence for the interleaved acquisition of on-resonance and off-resonance spectra. Total saturation time was 3 seconds. Suppression of the residual water signal was achieved by excitation sculpting.
# Diffusion NMR experiments were performed using the LED pulse sequence[40] with gradient lengths of 3 ms and a diffusion delay of 110 ms. The total inter-scan delay was 4.5 s.
# [12] = P. aeruginosa PaO1, 10 mg/kg/d i.p., 72 h
# [13] = P. aeruginosa PaO1 MLD i.p., 10 mg/kg AOA-2 i.p. 2 h after challenge
# [14] = A. baumannii ATCC 17978, 10 mg/kg/d i.p., 72 h
# [15] = A. baumannii ATCC 17978 MLD i.p., 10 mg/kg AOA-2 i.p. 2 h after challenge
# [16] = E. coli ATCC 25922, 10 mg/kg/d i.p., 72 h
# [17] = E. coli ATCC 25922 MLD i.p., 10 mg/kg AOA-2 i.p. 2 h after challenge
# T1 sequence (P0A910 22-346): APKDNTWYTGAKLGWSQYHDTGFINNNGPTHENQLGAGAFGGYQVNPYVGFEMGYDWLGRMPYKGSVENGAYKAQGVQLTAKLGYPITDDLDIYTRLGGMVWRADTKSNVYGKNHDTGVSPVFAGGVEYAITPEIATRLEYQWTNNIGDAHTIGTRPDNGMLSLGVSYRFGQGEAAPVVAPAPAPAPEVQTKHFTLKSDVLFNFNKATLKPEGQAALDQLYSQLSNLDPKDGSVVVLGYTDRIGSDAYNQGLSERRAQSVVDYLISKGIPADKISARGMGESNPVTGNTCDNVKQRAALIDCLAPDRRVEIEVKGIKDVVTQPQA
smiles,measurement,setting,value
N=C(N)NCCC[C@@H]1NC(=O)[C@H]2CCCN2C(=O)[C@H](Cc2c[nH]c3ccccc23)NC(=O)[C@H](CCCNC(=N)N)NC(=O)[C@H]2CCCN2C(=O)[C@H](Cc2c[nH]c3ccccc23)NC1=O [AOA-2] (cyclo(RW[dP]RW[dP])),mouse mortality (in words),P. aeruginosa PaO1 [1]; [12],decreased
same,positive blood cultures (in words),P. aeruginosa PaO1 [1]; [12],decreased
same,reduced the bacterial load in the lungs,P. aeruginosa PaO1 [1]; [13],4.29 log CFU/g
same,reduced the bacterial load in the spleen,P. aeruginosa PaO1 [1]; [13],4.04 log CFU/g
same,mouse mortality (in words),A. baumannii ATCC 17978 [2]; [14],decreased
same,positive blood cultures (in words),A. baumannii ATCC 17978 [2]; [14],decreased
same,reduced the bacterial load in the lungs,A. baumannii ATCC 17978 [2]; [15],4.34 log CFU/g
same,reduced the bacterial load in the spleen,A. baumannii ATCC 17978 [2]; [15],4.54 log CFU/g
same,mouse mortality (in words),E. coli ATCC 25922 [3]; [16],decreased
same,positive blood cultures (in words),E. coli ATCC 25922 [3]; [16],decreased
same,reduced the bacterial load in the lungs,E. coli ATCC 25922 [3]; [17],3.47 log CFU/g
same,reduced the bacterial load in the spleen,E. coli ATCC 25922 [3]; [17],3.36 log CFU/g
same,reduction in the adherence of A. baumannii to A549 cells,"A. baumannii ATCC 17978 [4]; 0.25 mg/mL, 10^8 CFU/mL",more than 60%
same,"ability to reduce A. baumannii adherence to A549 cells, rank among synthesized peptides (in words)","A. baumannii ATCC 17978 [4]; 0.25, 0.5, 1 mg/mL",greatest ability to reduce the A. baumannii adherence to A549 cells
same,bacteriostatic activity (in words),P. aeruginosa PaO1 [5],relevant bacteriostatic activity
same,bacteriostatic activity (in words),A. baumannii ATCC 17978 [6],poor bacteriostatic activity
same,bacteriostatic activity (in words),E. coli ATCC 25922 [7],intermediate behaviour
same,A549 cell death induced by bacteria (in words),P. aeruginosa PaO1 [8],prevented cell death
same,A549 cell death induced by bacteria (in words),A. baumannii ATCC 17978 [9],prevented cell death
same,A549 cell death induced by bacteria (in words),E. coli ATCC 25922 [10],failure
same,A549 cell death induced by ompA-deficient A. baumannii (in words),[11],no effect on cell death
same,binding to OmpA by NMR (in words),E. coli OmpA,interacting with OmpA
